The target in assay [1] is T1, recombinant human muscarinic receptor m2 (Homo sapiens, UniProt P08172).
T1 construct: expressed in transfected cells; host or cells: Chinese hamster ovary (CHO) cells, membrane preparation
T1 sequence (P08172 1-466): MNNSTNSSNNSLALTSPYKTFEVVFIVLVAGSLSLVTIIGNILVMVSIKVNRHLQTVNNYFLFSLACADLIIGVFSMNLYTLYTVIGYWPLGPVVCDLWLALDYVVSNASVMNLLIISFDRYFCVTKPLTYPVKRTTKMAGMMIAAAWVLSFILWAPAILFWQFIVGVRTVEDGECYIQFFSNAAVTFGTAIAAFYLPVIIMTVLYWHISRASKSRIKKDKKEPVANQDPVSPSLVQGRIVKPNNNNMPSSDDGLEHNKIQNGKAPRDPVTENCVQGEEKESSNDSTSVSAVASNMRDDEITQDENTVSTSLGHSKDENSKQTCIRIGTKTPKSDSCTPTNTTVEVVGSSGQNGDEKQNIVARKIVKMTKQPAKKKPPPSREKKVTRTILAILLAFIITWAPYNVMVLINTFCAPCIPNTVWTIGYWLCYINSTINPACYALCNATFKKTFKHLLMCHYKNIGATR
Kind of assay: Radioligand binding studies, [3H]N-methyl scopolamine, scintillation proximity assay. As to conditions: CHO cell membranes, pIC50 converted to pKi by Cheng-Prusoff. Here is the method: (§1) The compounds of this invention are muscarinic receptor antagonists. The muscarinic receptor affinity of test compounds can be determined by an in vitro receptor binding assay which utilizes a cell membrane preparation from the Chinese hamster ovary cells expressing the recombinant human muscarinic receptors (M1-M5), and is described in more detail in Example 18.
(§2) The inhibitory activity of compounds of this invention in vitro was determined using a modification of the method described in Hegde, S. S. et al. (1997) Br. J. Pharmacol., 120, 1409-1418.
(§3) Cell membranes from Chinese hamster ovary cells expressing the recombinant human muscarinic receptors (m1-m5) were employed. The assays were conducted with the radioligand [^3H]N-methyl scopolamine(0.4 nM, specific activity 84 Ci·mmol^−1) in a final volume of 0.25 mL Tris-Krebs buffer. Non-specific binding was defined with 1 μM atropine. Assays were performed using scintillation proximity assay technology. Competition-displacement curves were generated using 10 concentrations of test compounds and were analyzed by iterative curve fitting to a four parameter logistic equation. pIC50 values (−log of the IC50) were converted to pKi values using the Cheng-Prusoff equation.
Background: Scintillation proximity formats need no separation of bound from free tracer.

Assay [2] addresses T2, recombinant human muscarinic receptor m3 (Homo sapiens, UniProt P20309).
T2 construct: expressed in transfected cells; host or cells: Chinese hamster ovary (CHO) cells, membrane preparation
The assay is described as above. To be noted: CHO cell membranes, pIC50 converted to pKi by Cheng-Prusoff. Here is the method: as §1, §2, §3

T2 sequence (P20309 whole entry): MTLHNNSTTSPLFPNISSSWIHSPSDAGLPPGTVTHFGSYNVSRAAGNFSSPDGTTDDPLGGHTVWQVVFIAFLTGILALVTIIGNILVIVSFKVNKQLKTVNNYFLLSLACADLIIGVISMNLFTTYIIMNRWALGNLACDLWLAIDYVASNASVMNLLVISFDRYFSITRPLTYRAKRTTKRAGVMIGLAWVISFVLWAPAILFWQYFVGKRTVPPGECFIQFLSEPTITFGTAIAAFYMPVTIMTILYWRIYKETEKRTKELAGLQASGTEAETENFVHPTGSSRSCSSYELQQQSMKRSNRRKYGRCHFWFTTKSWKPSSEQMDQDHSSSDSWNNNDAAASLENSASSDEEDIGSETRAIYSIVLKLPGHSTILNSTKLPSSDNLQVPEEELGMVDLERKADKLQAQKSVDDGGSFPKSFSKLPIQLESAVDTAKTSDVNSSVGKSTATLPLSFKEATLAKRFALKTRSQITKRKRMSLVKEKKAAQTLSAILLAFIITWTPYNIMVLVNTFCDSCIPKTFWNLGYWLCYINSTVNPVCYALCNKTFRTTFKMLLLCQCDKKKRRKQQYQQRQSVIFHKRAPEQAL

Regarding `CCCN(CC1CCN(C(=O)c2ccno2)CC1)C1CCc2ccc(OS(=O)(=O)C(F)(F)F)cc2C1` (stereo not drawn) [Cpd 107, trifluoro-methanesulfonic acid 7-{[1-(isoxazole-5-carbonyl)-piperidin-4-ylmethyl]-propyl-amino}-5,6,7,8-tetrahydro-naphthalen-2-yl ester], the Ki – broadly, a dissociation constant, usually derived from enzyme kinetics or from competition with a known ligand – in assay [1] is 0.0162 µM; in assay [2], 0.148 µM.

Regarding `CCCN(CC1CCN(C(=O)C2CCNCC2)CC1)C1CCc2ccc(OS(=O)(=O)c3c(C)noc3C)cc2C1` (stereo not drawn) [Cpd 114, 3,5-dimethyl-isoxazole-4-sulfonic acid 7-{[1-(piperidine-4-carbonyl)-piperidin-4-ylmethyl]-propyl-amino}-5,6,7,8-tetrahydro-naphthalen-2-yl ester], the inhibition constant Ki in assay [1] is 0.00126 µM; in assay [2] it was 0.0513 µM.

`CCCN(CC1CCN(S(C)(=O)=O)CC1)C1CCc2ccc(-c3ccco3)cc2C1` (stereo not drawn) [Cpd 117, (7-furan-2-yl-1,2,3,4-tetrahydro-naphthalen-2-yl)-(1-methanesulfonyl-piperidin-4-ylmethyl)-propyl-amine]: the Ki was 0.141 µM in assay [1] and 0.603 µM in assay [2].

As for `CCCN(CCC1CCN(C(=O)C2CCNCC2)CC1)[C@@H]1CCc2ccc(OC)cc2C1` [Cpd 116, (4-{2-[((R)-7-methoxy-1,2,3,4-tetrahydro-naphthalen-2-yl)-propyl-amino]-ethyl}-piperidin-1-yl)-piperidin-4-yl-methanone], the inhibition constant Ki is 0.00251 µM in assay [1] and 5.13 µM in assay [2].

Consider `CCCN(CC1CCN(C(=O)c2ccco2)CC1)C1CCc2cc(OC)c(OC)cc2C1` (stereo not drawn) [Cpd 70, (4-{[(6,7-dimethoxy-1,2,3,4-tetrahydro-naphthalen-2-yl)-propyl-amino]-methyl}-piperidin-1-yl)-furan-2-yl-methanone], for which the inhibition constant (Ki) in assay [1] is 0.0427 µM; in assay [2], 0.331 µM.

For `CCCN(CC1CCN(C(=O)NC)CC1)C1CCc2ccc(OC)cc2C1` (stereo not drawn) [Cpd 25, 4-{[(7-methoxy-1,2,3,4-tetrahydro-naphthalen-2-yl)-propyl-amino]-methyl}-piperidine-1-carboxylic acid methylamide], the Ki in assay [1] is 0.0251 µM; in assay [2], 0.102 µM.

Regarding `CCCN(CC1CCN(S(C)(=O)=O)CC1)C1CCc2ccc(OCC)cc2C1` (stereo not drawn) [Cpd 104, (7-ethoxy-1,2,3,4-tetrahydro-naphthalen-2-yl)-(1-methanesulfonyl-piperidin-4-ylmethyl)-propyl-amine], the inhibition constant Ki in assay [1] is 0.0162 µM; in assay [2] it was 0.0468 µM.

Turning to `CCCN(CC1CCN(C(=O)N2CCN(C)CC2)CC1)C1CCc2ccc(OS(=O)(=O)c3c(C)noc3C)cc2C1` (stereo not drawn) [Cpd 115, 3,5-dimethyl-isoxazole-4-sulfonic acid 7-{[1-(4-methyl-piperazine-1-carbonyl)-piperidin-4-ylmethyl]-propyl-amino}-5,6,7,8-tetrahydro-naphthalen-2-yl ester], the Ki in assay [1] is 0.0219 µM; in assay [2], 0.0676 µM.

With `CCN(CC1CCN(C(=O)N2CCOCC2)CC1)C1CCc2ccc(NC(=O)c3ccc(S(C)(=O)=O)cc3)cc2C1` (stereo not drawn) [Cpd 2, N-(7-{ethyl-[1-(morpholine-4-carbonyl)-piperidin-4-ylmethyl]-amino}-5,6,7,8-tetrahydro-naphthalen-2-yl)-4-methanesulfonyl-benzamide], the Ki in assay [1] is 0.0479 µM; in assay [2], 1.2 µM.

With `CCN(CC1CCN(C(=O)NC(C)C)CC1)C1CCc2ccc(NC(=O)c3ccc(F)cc3)cc2C1` (stereo not drawn) [Cpd 7, 4-({ethyl-[7-(4-fluoro-benzoylamino)-1,2,3,4-tetrahydro-naphthalen-2-yl]-amino}-methyl)-piperidine-1-carboxylic acid isopropylamide], the inhibitory constant (Ki) in assay [1] was 0.0105 µM; in assay [2] it was 0.646 µM.

As for `CCCN(CC1CCN(S(C)(=O)=O)CC1)C1CCc2ccc(N)cc2C1` (stereo not drawn) [Cpd 85, N-(1-methanesulfonyl-piperidin-4-ylmethyl)-N-propyl-1,2,3,4-tetrahydro-naphthalene-2,7-diamine], the results for the inhibitory constant (Ki) in assay [1] and in assay [2] were 0.0129 µM and 0.166 µM, respectively.

For the molecule `CCCN(CC1CCN(C(=O)N2CCOCC2)CC1)C1CCc2ccc(N)cc2C1` (stereo not drawn) [Cpd 95, (4-{[(7-amino-1,2,3,4-tetrahydro-naphthalen-2-yl)-propyl-amino]-methyl}-piperidin-1-yl)-morpholin-4-yl-methanone], the values for the inhibition constant (Ki) in assay [1] and in assay [2] were 0.00525 µM and 0.186 µM, respectively.

The values above are taken from patent publication US6864266B2, “4-piperidinyl alkyl amine derivatives as muscarinic receptor antagonists” (Syntex (U.S.A.) LLC, priority 2001, dated 2005).
